Measured values taken from patent US8389544B2, “Isoquinolone compounds as subtype-selective agonists for melatonin receptors MT1 and MT2” (The Hong Kong University of Science and Technology, priority 2007, dated 2013).
Where two headings read alike, the source gives them in different places.

Legend:
Parental 293 = test: MTT cytotoxicity assay, parental 293 cells; format: cell-based; conditions: percentage of untreated control cells
Method: This assay evaluates the cytotoxic effects of the novel isoquinolone compounds based on the cellular viability under chronic treatments. Viable cells but not dead cells can turn the substrate into a colored product, which yields higher absorbance. […] A low percentage indicates low cytoviability (or high cytotoxicity).
5. Cytotoxicity Test Using MTT Assay
Cells were seeded into clear 96-well plate at an appropriate density in 100 μl growth medium and were allowed to grow overnight. The novel isoquinolone compounds were diluted to desired concentrations using fresh growth medium, and these dilutions were used to replace the growth media in each well. After incubating for 24-96 h, 10 μl of the MTT labeling reagent (Roche) was added to each well and the cells were incubated in a CO2 incubator for 4 h. 100 μl solubilization buffer was then added into each well and incubated overnight for complete solubilization of the purple formazan crystals. […] Each condition was performed in triplicate in every experiment and the results were expressed as % of blank control±SD.

MT2 receptor [1] = molecular target: T1, MT2 receptor (Homo sapiens, UniProt P49286); test: Competitive [3H]melatonin binding assay, MT2; parameters: expressed in transfected cells; conditions: displacement of 1 nM [3H]melatonin
T1 sequence (P49286 1-362): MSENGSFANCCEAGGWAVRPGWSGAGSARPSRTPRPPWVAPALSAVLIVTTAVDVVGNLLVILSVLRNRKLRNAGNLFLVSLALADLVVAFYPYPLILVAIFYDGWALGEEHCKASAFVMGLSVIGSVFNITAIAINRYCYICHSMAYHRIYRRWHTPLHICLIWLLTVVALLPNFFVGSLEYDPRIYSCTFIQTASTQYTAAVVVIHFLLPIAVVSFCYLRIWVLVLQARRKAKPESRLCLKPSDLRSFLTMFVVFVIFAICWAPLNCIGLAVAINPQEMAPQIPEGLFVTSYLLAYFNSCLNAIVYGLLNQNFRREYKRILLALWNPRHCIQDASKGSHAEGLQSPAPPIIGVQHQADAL
Method: Competitive ligand binding assays were performed to examine the receptor binding characteristics of the novel isoquinolone compounds. The assay measures the ability of the novel isoquinolone compounds to bind and displace the radiolabelled endogenous ligand, [^3H]melatonin. Increasing concentrations of the novel compounds are added to displace the [^3H]melatonin-bound to MT1 or MT2 receptor-expressing cells.
4. Competitive Binding Assay
The ability of compounds to bind to MT1 and/or MT2 receptors is determined using radioligand binding assays. […] 48 hours following transfection, cells are harvested in binding buffer (50 mM Tris-HCl, 2 mM MgCl2, 1 mM EDTA, pH 7.4). 100,000 cells are incubated with 1 nM [^3H] melatonin (specific activity: 83 Ci/mmol; GE Healthcare) and appropriate concentrations (0.1 nM to 1 μM) of unlabelled ligands in a total volume of 100 μl in 96-well plates (PerkinElmer Life And Analytical Sciences, Inc., Boston, Mass.) for 2 hours at room temperature. Reactions are terminated by rapid filtration through a 96-well cell harvester onto 96-well GF/C filter mats. Filters are washed with 500 μl of ice-cold binding buffer, dried and sealed in a polyethylene bag with 3.5 ml of scintillation fluid and counted for tritium in a Microbeta Jet scintillation counter. […] Data are analyzed by nonlinear least-squares regression using GraphPad Prism 3.02.

MT1 receptor = MT1 receptor (Homo sapiens, UniProt P48039); test: FLIPR Ca2+ mobilization assay, MT1; format: cell-based; parameters: expressed in transfected cells; host or cells: COS-7 (monkey kidney fibroblast); conditions: for logEC50 ± SEM: NSR = No significant response; for % Response of 2-IMT: relative to 2-IMT response
Method: (§1) 1. FLIPR Ca^2+ Mobilization Assay
(§2) This assay indicates the ability of the novel compounds to activate MT1 and MT2 receptors by measuring downstream events of the activated receptor, in this case intracellular calcium mobilization.
(§3) 1. Intracellular Ca^2+ Mobilization Assay Using Fluorometric Imaging Plate Reader (FLIPR®)
(§4) An intracellular calcium mobilization assay was performed to screen the isoquinolone compounds against the two melatonin receptor subtypes, MT1 and MT2 on the fluorometric imaging plate reader (FLIPR®). In order to facilitate the screening process in a high-throughput manner, chimeric G proteins with the ability to couple to a range of GPCR as well as activate intracellular Ca^2+ were employed. The melatonin receptor subtype (either MT1 or MT2) was co-expressed with the G-protein chimeras in COS-7 (monkey kidney fibroblast) cells. During the assay, cells were exposed to the novel isoquinolone compounds and the corresponding change in fluorescence was measured. Both single point and dose-dependant assays were performed for each isoquinolone compound and based on the latter a dose response curve was generated and the corresponding EC50 for each receptor subtype determined.
(§5) Specifically, COS-7 cells were seeded at a density of 20,000 cells/well into 96-well plates designed for FLIPR assays, using Opti-MEM with 10% FCS at a volume of 100 μl/well. Transfection was carried out using Lipofectamine 2000® reagent. In each well, 0.2 μg of the GPCR and G protein cDNA were diluted with 25 μl of Opti-MEM and 0.2 μl of Lipofectamine 2000® was diluted with another 25 μl of Opti-MEM. They were added to appropriate wells after the two components were mixed for 20 min.
(§6) After 48 hours of incubation post-transfection, 50 μl of the transfection medium was removed from each well followed by the labelling of transfected cells with 100 μl of 2 μM Fluo-4 in calcium containing HBSS (Hank's balanced salt solution) with 20 mM HEPES (N-[2-hydroxyethyl]piperazine—N′-[2-ethanesulfonic acid]; pH 7.5) and 2.5 mM probenecid (anion exchanger inhibitor, freshly prepared) for 1 hour at 37° C. 70 μl of 3× drugs (isoquinolinone compounds encompassing the invention) were prepared and aliquoted into the corresponding wells in the V-well drug plate. Changes in fluorescence were detected in the FLIPR 96 with an excitation wavelength of 488 nm. The background fluorescence was adjusted to the range of 8,000 to 12,000 units by altering the laser power and exposure time (typically 0.4 W and 0.4 sec, respectively) for the FLIPR setup. 50 μl of each agonist solution was added to the corresponding wells and the fluorescent emission (between 510 and 560 nm) was monitored for 3 min. Results were expressed as change in fluorescent intensity units (FIU). Concentration-response curves were generated by determining the maximal change in FIU of each data set. Numerical analysis of the statistics and EC50 (median effective concentration) values were performed on GraphPad Prism version 3.03.
(§7) Then the intracellular Ca^2+ mobilization assays using the Fluorometric Imaging Plate Reader (FLIPR®) were performed as described above.

MT2 receptor [2] = molecular target: T1, MT2 receptor; test: FLIPR Ca2+ mobilization assay, MT2; format: cell-based; parameters: expressed in transfected cells; host or cells: COS-7 (monkey kidney fibroblast); conditions: for % Response of 2-IMT: relative to 2-IMT response; for agonist character / receptor subtype selectivity in words: FLIPR results, MT1 versus MT2; for Emax: read-out: % Response of 2-IMT
Method: as §1, §2, §3, §4, §5, §6, §7

[3] = HEK-293 cells, log value, negative, NSB = No significant binding
[4] = Table 1, MT1 in COS-7 cells with chimeric G protein, log value, negative, NSR = no significant response
[5] = Table 2, MT1, log value, negative
[6] = Table 1, MT2 in COS-7 cells with chimeric G protein, log value, negative, NSR = no significant response
[7] = Table 2, MT2, log value, negative
[8] = Table 1, MT1 in COS-7 cells with chimeric G protein, log value, negative, NSR = no significant response, read-out: Log(EC50) ± SEM (converted)
[9] = Table 1, MT2 in COS-7 cells with chimeric G protein, log value, negative, NSR = no significant response, read-out: Log(EC50) ± SEM (converted)
[10] = unit inferred, read-out: Binding Assay MT2 IC50

MT1 receptor, sequence (P48039 whole entry): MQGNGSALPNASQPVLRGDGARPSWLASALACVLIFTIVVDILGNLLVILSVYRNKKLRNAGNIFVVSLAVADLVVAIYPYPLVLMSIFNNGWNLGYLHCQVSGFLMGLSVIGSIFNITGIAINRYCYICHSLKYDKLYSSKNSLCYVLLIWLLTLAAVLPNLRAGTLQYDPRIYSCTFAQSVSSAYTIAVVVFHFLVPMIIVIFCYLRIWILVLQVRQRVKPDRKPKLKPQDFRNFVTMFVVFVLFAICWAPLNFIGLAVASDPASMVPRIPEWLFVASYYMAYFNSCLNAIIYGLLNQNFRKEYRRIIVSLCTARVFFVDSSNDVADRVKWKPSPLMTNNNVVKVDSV

Structure (SMILES)	MTT Assay Parental 293 % Viability ± SEM (Parental 293) [%]	Binding Assay MT2 logIC50 ± SEM (MT2 receptor [1]; [3])	Log(EC50) ± SEM (MT1 receptor; [4])	logEC50 ± SEM (MT1 receptor; [5])	% Response of 2-IMT (MT2 receptor [2]; Table 1, MT2) [%]	Log(EC50) ± SEM (MT2 receptor [2]; [6])	% Resp of 2-IMT (MT2 receptor [2]; Table 2, MT2) [%]	logEC50 ± SEM (MT2 receptor [2]; [7])	EC50 (MT2 receptor [2]; Table 2, MT2, read-out: EC50) [nM]	% Response of 2-IMT (MT1 receptor; Table 1, MT1) [%]	EC50 (MT1 receptor; [8]) [nM]	EC50 (MT1 receptor; Table 2, MT1, read-out: EC50) [nM]	agonist character / receptor subtype selectivity in words (MT2 receptor [2])	EC50 (MT2 receptor [2]; [9]) [nM]	Emax (MT2 receptor [2]) [%]	IC50 (MT2 receptor [1]; [10]) [nM]	IC50 (MT2 receptor [1]; HEK-293 cells, log value, negative, NSB = No significant binding, read-out: Binding Assay MT2 logIC50 ± SEM (converted)) [nM]	activity / efficacy at MT2 compared to 2-IMT (MT2 receptor [2]) [%]	EC50 (MT2 receptor [2]; read-out: EC50 MT2) [nM]
Cn1ccc2cc(OC(=O)c3ccccc3)c(OC(=O)c3ccccc3)cc2c1=O [IS039]	104.9 ± 4.8	NSB	NSR	NSR	61.0	−8.64 ± 0.20	61.0	−8.64 ± 0.20	2.31	–	–	–	–	–	–	–	–	–	–
COc1cc(COc2cc3ccn(C)c(=O)c3cc2OC)cc(OC)c1 [IS042]	60.7 ± 0.4	NSB	–	–	–	–	84.5	–	0.379	49.4	12	12	very potent full agonists with high MT2 selectivity	0.38	84.5	–	–	–	–
COc1cccc(COc2cc3ccn(C)c(=O)c3cc2OC)c1 [IS044]	78.6 ± 5.8	–	−6.79 ± 0.17	−6.79 ± 0.17	94.9	−8.42 ± 0.25	94.9	−8.42 ± 0.25	3.8	54.5	–	161	very potent full agonists with high MT2 selectivity	–	–	–	–	–	–
COc1cccc(COc2cc3c(=O)n(C)ccc3cc2OC)c1 [IS521]	66.1 ± 4.9	–	–	–	–	–	98.9	–	11.4	31.8	1860	1860	very potent full agonists with high MT2 selectivity	11.5	98.9	145	–	–	–
COc1cc(COc2cc3c(=O)n(C)ccc3cc2OC)cc(OC)c1 [IS523]	37.5 ± 0.9	NSB	NSR	NSR	–	–	61.0	–	45.4	–	–	–	very potent full agonists with high MT2 selectivity	45.7	61	–	–	–	–
COc1cc2ccn(C)c(=O)c2cc1OCc1ccc(C(C)(C)C)cc1 [IS526]	27.5 ± 18.9	NSB	−5.35 ± 1.32	−5.35 ± 1.32	88.6	−5.42 ± 0.76	88.6	−5.42 ± 0.76	3770	46.2	–	4490	–	–	–	–	–	–	–
COc1cccc(COc2c(OC)ccc3c(=O)n(C)ccc23)c1 [IS527]	36.8 ± 0.0	–	NSR	NSR	–	–	65.9	–	5.78	–	–	–	–	–	65.9	108	117	~65	5.78
COc1cc(COc2c(OC)ccc3c(=O)n(C)ccc23)cc(OC)c1 [IS528]	32.2 ± 2.3	NSB	−5.15 ± 0.51	−5.15 ± 0.51	64.8	−9.43 ± 0.75	64.8	−9.43 ± 0.75	0.369	42.1	–	7140	–	–	–	–	–	~65	0.37
COc1ccc2c(=O)n(C)ccc2c1OCc1ccc(C)cc1 [IS529]	35.9 ± 0.4	NSB	NSR	NSR	–	–	53.6	–	65.2	–	–	–	activated MT2 only	64.6	53.6	–	–	–	–
